Assay results from ChEMBL document CHEMBL6083269, “Design, synthesis, in vitro and in vivo trypanosomaticidal efficacy of novel 5-nitroindolylazines” (Eur J Med Chem, 2024).
Active and inactive are the calls of the source. The rule behind the calls is not given here.

Key:
[1] = tested on: Trypanosoma brucei gambiense; test: Trypanocidal activity against Trypanosoma brucei gambiense IL1922 incubated for 72 hrs by CellTiter-Glo reagent based […] analysis; assay type: functional, organism-based; conditions: IL1922, 72 h
[2] = Selectivity index, ratio of IC50 for african green monkey Vero cells to IC50 for Leishmania donovani 9515 (MHOM/IN/95/9151) promastigote; assay type: toxicity, cell-based; conditions: read-out: Ratio IC50
[3] = tested on: Trypanosoma brucei brucei; test: Trypanocidal activity against Trypanosoma brucei brucei GUTat3.1 incubated for 72 hrs by CellTiter-Glo reagent based […] analysis; assay type: functional, organism-based; conditions: GUTat3.1, 72 h
Trypanosoma equiperdum = test: Trypanocidal activity against Trypanosoma equiperdum IVM-t1 incubated for 72 hrs by CellTiter-Glo reagent based […] analysis; assay type: functional, organism-based; conditions: IVM-t1, 72 h
[4] = Selectivity index, ratio of CC50 for MDBK to IC50 for Trypanosoma brucei rhodesiense IL1501; assay type: toxicity, cell-based; conditions: cattle, MDBK cells; read-out: Ratio CC50/IC50
[5] = Selectivity index, ratio of CC50 for MDBK to IC50 for Trypanosoma brucei brucei GUTat3.1; assay type: toxicity, cell-based; conditions: cattle, MDBK cells; read-out: Ratio CC50/IC50
Leishmania donovani [6] = test: Leishmanicidal activity against Leishmania donovani 9515 (MHOM/IN/95/9151) amastigote infected in THP-1 cells incubated for 72 hrs by resazurin dye based plate reader assay; assay type: functional, organism-based; conditions: THP-1, 72 h
[7] = Selectivity index, ratio of IC50 for human THP-1 cells to IC50 for leishmanicidal activity against Leishmania donovani 9515 (MHOM/IN/95/9151) amastigote; assay type: toxicity, cell-based; conditions: read-out: Ratio IC50
[8] = Selectivity index, ratio of IC50 for human THP-1 cells to IC50 for Leishmania donovani 9515 (MHOM/IN/95/9151) promastigote; assay type: toxicity, cell-based; conditions: read-out: Ratio IC50
Leishmania donovani [9] = test: Antileishmanial activity against Leishmania donovani 9515 (MHOM/IN/95/9151) promastigote incubated for 48 hrs by resazurin dye based plate reader assay; assay type: functional, organism-based
[10] = Selectivity index, ratio of CC50 for MDBK to IC50 for Trypanosoma congolense IL3000; assay type: toxicity, cell-based; conditions: cattle, MDBK cells; read-out: Ratio CC50/IC50
[11] = Cytotoxicity against green monkey Vero cells incubated for 48 hrs by resazurin dye based assay; assay type: toxicity, cell-based; conditions: African green monkey (Chlorocebus sabaeus)
[12] = Selectivity index, ratio of CC50 for MDBK to IC50 for Trypanosoma brucei gambiense IL1922; assay type: toxicity, cell-based; conditions: cattle, MDBK cells; read-out: Ratio CC50/IC50
Leishmania donovani [13] = test: Antileishmanial activity against Leishmania donovani 9515 (MHOM/IN/95/9151) amastigote infected in THP-1 cells assessed as inhibition of parasite growth incubated for 72 hrs by resazurin dye based plate reader assay; assay type: functional, organism-based; conditions: THP-1, 72 h
[14] = tested on: Trypanosoma brucei rhodesiense; test: Trypanocidal activity against Trypanosoma brucei rhodesiense IL1501 incubated for 72 hrs by CellTiter-Glo reagent based […] analysis; assay type: functional, organism-based; conditions: IL1501, 72 h
[15] = Selectivity index, ratio of IC50 for african green monkey Vero cells to IC50 for leishmanicidal activity against Leishmania donovani 9515 (MHOM/IN/95/9151) amastigote; assay type: toxicity, cell-based; conditions: read-out: Ratio IC50
[16] = Selectivity index, ratio of CC50 for MDBK to IC50 for Trypanosoma evansi Tansui; assay type: toxicity, cell-based; conditions: cattle, MDBK cells; read-out: Ratio CC50/IC50
[17] = Selectivity index, ratio of IC50 for human THP-1 cells to IC50 for static antileishmanial activity against Leishmania donovani 9515 (MHOM/IN/95/9151) amastigote; assay type: toxicity, cell-based; conditions: read-out: Ratio IC50
[18] = Selectivity index, ratio of IC50 for african green monkey Vero cells to IC50 for static antileishmanial activity against Leishmania donovani 9515 (MHOM/IN/95/9151) amastigote; assay type: toxicity, cell-based; conditions: read-out: Ratio IC50
Trypanosoma evansi = test: Trypanocidal activity against Trypanosoma evansi Tansui incubated for 72 hrs by CellTiter-Glo reagent based […] analysis; assay type: functional, organism-based
[19] = Selectivity index, ratio of CC50 for MDBK to IC50 for Trypanosoma equiperdum IVM-t1; assay type: toxicity, cell-based; conditions: cattle, MDBK cells; read-out: Ratio CC50/IC50
[20] = Cytotoxicity against human […]-differentiated THP-1 cells incubated for 72 hrs by resazurin dye based assay; assay type: toxicity, cell-based
Trypanosoma congolense [21] = test: Trypanocidal activity against Trypanosoma congolense IL3000 incubated for 72 hrs by CellTiter-Glo reagent based […] analysis; assay type: functional, organism-based; conditions: IL3000, 72 h
[22] = Cytotoxicity against MDBK cells incubated for 72 hrs by CCK8 assay; assay type: toxicity, cell-based, Bos taurus; conditions: cattle; for CC50 at 72 h: MDBK cells
Trypanosoma cruzi [23] = test: Antitrypanosomal activity against Trypanosoma cruzi Tulahuen C4 strain trypomastigotes assessed as growth inhibition at 20 uM incubated for 48 hrs by resazurin dye based assay; assay type: functional; parameters: scale not given: the % may be the effect or the level left
Trypanosoma cruzi [24] = test: Antitrypanosomal activity against Trypanosoma cruzi Tulahuen C4 strain amastigotes infected in Vero cells incubated for 72 hrs by beta-galactosidase based assay; assay type: functional, organism-based
Leishmania major [25] = test: Antileishmanial activity against Leishmania major NIH-S (MHOM/SN/74/Seidman) amastigote infected in THP-1 cells assessed as inhibition of parasite growth incubated for 72 hrs by resazurin dye based plate reader assay; assay type: functional, organism-based; conditions: THP-1, 72 h
[26] = Selectivity index, ratio of IC50 for human THP-1 cells to IC50 for Leishmania major IR-173 (MHO-M/IR/-173) promastigote; assay type: toxicity, cell-based; conditions: read-out: Ratio IC50
[27] = Selectivity index, ratio of IC50 for african green monkey Vero cells to IC50 for static antileishmanial activity against Leishmania major NIH-S (MHOM/SN/74/Seidman) amastigote; assay type: toxicity, cell-based; conditions: read-out: Ratio IC50
[28] = Selectivity index, ratio of IC50 for human THP-1 cells to IC50 for leishmanicidal activity against Leishmania major NIH-S (MHOM/SN/74/Seidman); assay type: toxicity, cell-based; conditions: read-out: Ratio IC50
[29] = Selectivity index, ratio of IC50 for human THP-1 cells to IC50 for static antileishmanial activity against Leishmania major NIH-S (MHOM/SN/74/Seidman) amastigote; assay type: toxicity, cell-based; conditions: read-out: Ratio IC50
[30] = Selectivity index, ratio of IC50 for african green monkey Vero cells to IC50 for Trypanosoma cruzi Tulahuen C4 strain; assay type: toxicity, cell-based; conditions: read-out: Ratio IC50
[31] = Selectivity index, ratio of IC50 for african green monkey Vero cells to IC50 for Leishmania major IR-173 (MHO-M/IR/-173) promastigote; assay type: toxicity, cell-based; conditions: read-out: Ratio IC50
Leishmania major [32] = test: Leishmanicidal activity against Leishmania major NIH-S (MHOM/SN/74/Seidman) amastigote incubated for 48 hrs by resazurin dye based plate reader assay; assay type: functional, organism-based
Trypanosoma congolense [33] = test: Antitrypanosomal activity against Trypanosoma congolense IL3000 infected in BALB/c mouse assessed as animal survival at 100 mg/kg, po or 10 mg/kg, ip administered for 7 consecutive days starting from 6 days post infection and measured after 13 days post infection; assay type: functional, organism-based; conditions: time 7.0 day
Trypanosoma congolense [34] = test: Antitrypanosomal activity against Trypanosoma congolense IL3000 infected in BALB/c mouse assessed as increase in animal survival time at 100 mg/kg, po or 10 mg/kg, ip administered for 7 consecutive days starting from 6 days post infection (reference value: 9 day); assay type: functional; conditions: time 7 day
[35] = Selectivity index, ratio of IC50 for african green monkey Vero cells to IC50 for leishmanicidal activity against Leishmania major NIH-S (MHOM/SN/74/Seidman) amastigote; assay type: toxicity, cell-based; conditions: read-out: Ratio IC50
[36] = Selectivity index, ratio of IC50 for human THP-1 cells to IC50 for Trypanosoma cruzi Tulahuen C4 strain; assay type: toxicity, cell-based; conditions: read-out: Ratio IC50
Leishmania major [37] = test: Antileishmanial activity against Leishmania major IR-173 (MHO-M/IR/-173) promastigote incubated for 48 hrs by resazurin dye based plate reader assay; assay type: functional, organism-based

Row | Compound | IC50 [1] [µM] | selectivity ratio [2] | IC50 [3] [µM] | IC50 (Trypanosoma equiperdum) [µM] | selectivity ratio [4] | selectivity ratio [5] | IC50 (Leishmania donovani [6]) [µM] | selectivity ratio [7] | selectivity ratio [8] | IC50 (Leishmania donovani [9]) [µM] | selectivity ratio [10] | IC50 at 48 h [11] [µM] | selectivity ratio [12] | IC50 (Leishmania donovani [13]) [µM] | IC50 [14] [µM] | selectivity ratio [16] | IC50 (Trypanosoma evansi) [µM] | selectivity ratio [19] | IC50 at 72 h [20] [µM] | IC50 (Trypanosoma congolense [21]) [µM] | further results
1 | C#CCn1cc(/C=N\N=C\c2cccs2)c2cc([N+](=O)[O-])ccc21 | 14.7 | 2 | 21.4 | 18.4 | 18.3 | > 13.9 | 0.67 | 25 | 2 | 7.02 | > 75.4 | 10.8 | 20.2 | 0.89 | 16.3 | > 16.1 | 18.5 | > 16.2 | 16.6 | 3.94 | selectivity ratio [15]: 16; selectivity ratio [17]: 16; selectivity ratio [18]: 12; CC50 at 72 h [22]: > 297 µM
2 | O=C(Cn1ccnc1[N+](=O)[O-])NCc1ccccc1 [BENZNIDAZOLE] | – | – | – | – | – | – | – | – | – | – | – | – | – | – | – | – | – | – | – | – | Activity (Trypanosoma cruzi [23]): 100%; IC50 (Trypanosoma cruzi [24]): 2.7 µM
3 | C#CCn1cc(/C=N\N=C\C(C)=Cc2ccccc2)c2cc([N+](=O)[O-])ccc21 | 27.2 | 1 | 26.7 | 29 | 0.93 | 0.34 | > 10 | – | 13 | 7.88 | 0.94 | 9.59 | 0.34 | > 10 | 9.86 | 0.41 | 22.7 | 0.32 | > 100 | > 9.79 | CC50 ([22]; mdbk, 72 h): 226 µM
4 | C#CCn1cc(/C=N\N=C\c2ccc([N+](=O)[O-])o2)c2cc([N+](=O)[O-])ccc21 | 0.68 | 40 | 1.24 | 1.88 | > 364 | > 222 | 3.29 | 20 | 332 | 0.2 | > 3280 | 8.07 | > 405 | 3.27 | 0.75 | > 140 | 1.96 | > 146 | 66.3 | 0.08 | IC50 (Leishmania major [25]): 1.09 µM; selectivity ratio [26]: 829; selectivity ratio [27]: 7; selectivity ratio [28]: 47; selectivity ratio [29]: 60; selectivity ratio [30]: 6; selectivity ratio [15]: 2; Activity (Trypanosoma cruzi [23]): 22%; selectivity ratio [31]: 106; IC50 (Leishmania major [32]): 1.41 µM; selectivity ratio [17]: 20; selectivity ratio [18]: 2; Activity (Trypanosoma congolense [33]): inactive; IC50 (Trypanosoma cruzi [24]): 1.21 µM; Survival (Trypanosoma congolense [34]): 9.5 days; selectivity ratio [35]: 6; selectivity ratio [36]: 55; IC50 (Leishmania major [37]): 0.08 µM; CC50 at 72 h [22]: > 274 µM
5 | C#CCn1cc(/C=N\N=C\c2ccc([N+](=O)[O-])s2)c2cc([N+](=O)[O-])ccc21 | 0.25 | 26 | 0.33 | 0.34 | > 753 | > 790 | 3.51 | > 28 | 51 | 1.95 | > 2950 | 51.1 | > 1070 | 2.34 | 0.35 | > 864 | 0.3 | > 780 | > 100 | 0.09 | IC50 (Leishmania major [25]): 0.36 µM; selectivity ratio [27]: 142; selectivity ratio [28]: 58; selectivity ratio [29]: 278; selectivity ratio [30]: 62; selectivity ratio [15]: 15; Activity (Trypanosoma cruzi [23]): 59%; IC50 (Leishmania major [32]): 1.74 µM; selectivity ratio [17]: 42; selectivity ratio [18]: 22; Activity (Trypanosoma congolense [33]): inactive; IC50 (Trypanosoma cruzi [24]): 0.82 µM; Survival (Trypanosoma congolense [34]): 10.5 days; selectivity ratio [35]: 25; selectivity ratio [36]: 121; IC50 (Leishmania major [37]): > 10 µM; CC50 at 72 h [22]: > 263 µM
